{
  "source": "patent US4616014A",
  "about": "“Triazine derivatives, and pharmaceutical compositions comprising the same” (Fujisawa Pharmaceutical Co., Ltd., priority 1981, dated 1986)",
  "key": {"[1]": {"system": "mean blood pressure", "test": "Antihypertensive test in DOCA/saline hypertensive rats (Test Method A)", "format": "in vivo, male Wister rats", "conditions": "Rattus norvegicus, DOCA hypertensive rats, read-out: Effect Max (mean ratio of maximum decrease of blood pressure); for inhibition in vivo at 0.1 mg/kg: c: orally; for inhibition in vivo at 1 mg/kg: d: orally", "protocol": "Five-week old male Wister rats were uninephrectomized under anesthesia. Deoxycorticosterone acetate (DOCA) (30 mg/kg), suspended in peanut oil, was injected subcutaneously twice a week and 1% saline was substituted for the drinking water. Animals with mean blood pressure 150-200 mmHg were used for experiment between 5 and 7 weeks after surgery. The test compounds were administered intraperitonealy or orally. Blood pressure was measured at the femoral artery by means of a pressure transducer and recorded as electrically integrated values of mean arterial pressure."}, "[2]": {"system": "platelet aggregation induced by collagen", "test": "Inhibition of collagen-induced platelet aggregation in platelet rich plasma (Test Method B)", "format": "cell-based, rabbit", "conditions": "2 min, collagen (2.5 μg/ml), 37° C., read-out: ID50, Collagen", "protocol": "(§1) Platelet rich plasma (PRP) which contains 6.5-7.5×10^8 platelet/ml was prepared from rabbit blood. To the 200 μl of PRP, 5 μl of calcium chloride (1 mM) and 50 μl of pH 7.4 Tris-acetate solution (5 mM) containing 120 mM NaCl and test compound were added successively, and then stirred for 2 min. at 37° C. To the solution 5 μl of adenosine diphosphate (ADP) (2.5 μM) or collagen (2.5 μg/ml) was added as an aggregation inducer. Aggregation was measured by using an aggregometer (NKK HEMA TRACER 1)."}, "[3]": {"system": "platelet aggregation induced by adenosine diphosphate (ADP)", "test": "Inhibition of ADP-induced platelet aggregation in platelet rich plasma (Test Method B)", "format": "cell-based, rabbit", "conditions": "2 min, ADP (2.5 μM), 37° C., read-out: ID50, ADP", "protocol": "as §1"}, "[4]": {"conditions": "Oryctolagus cuniculus, Platelet, pH 7.4, rabbit PRP"}, "[5]": {"conditions": "rabbit PRP, pH 7.4, listed as Ex. 75, 2 min"}, "[6]": {"conditions": "rabbit PRP, pH 7.4, listed as Ex. 76, 2 min"}},
  "note": "pIC50: −log10 of the molar value. Where a name gives a salt, the structure may show the parent alone. Read-outs that look alike come from different tables or passages of the source.",
  "data": [
    {"smiles": "CC1NC(=O)NN=C1c1ccc(Br)cc1", "note": "(stereo not drawn) [Example 32-(3), 37-(2), 6-(4-bromophenyl)-5-methyl-4,5-dihydro-1,2,4-triazin-3(2H)-one]", "values": [
      {"measurement": "inhibition in vivo at 10 mg/kg", "setting": "[1]; ip, a: intraperitonealy", "value": 61.8, "unit": "%"},
      {"measurement": "inhibition in vivo at 10 mg/kg", "setting": "[1]; po, b: orally", "value": 58.3, "unit": "%"}
    ]},
    {"smiles": "CC1NC(=O)NN=C1c1ccc2c(c1)CCC(=O)N2C", "note": "(stereo not drawn) [Example 49-(3), 77-(2), 5-methyl-6-(1-methyl-2-oxo-1,2,3,4-tetrahydroquinolin-6-yl)-4,5-dihydro-1,2,4-triazin-3(2H)-one]", "values": [
      {"measurement": "pIC50", "setting": "[2]; [4]", "value": 6.96},
      {"measurement": "pIC50", "setting": "[3]; [4]", "value": 6.80},
      {"measurement": "inhibition in vivo at 0.1 mg/kg", "setting": "[1]; po", "value": 43, "unit": "%"},
      {"measurement": "inhibition in vivo at 1 mg/kg", "setting": "[1]; po", "value": 70, "unit": "%"}
    ]},
    {"smiles": "CC1NC(=O)NN=C1c1ccc2c(c1)CCC(=O)N2C", "note": "(single isomer, unassigned; (-)) [Example 75, (-)-5-methyl-6-(1-methyl-2-oxo-1,2,3,4-tetrahydroquinolin-6-yl)-4,5-dihydro-1,2,4-triazin-3(2H)-one]", "values": [
      {"measurement": "pIC50", "setting": "[2]; [5]", "value": 7.47},
      {"measurement": "pIC50", "setting": "[3]; [5]", "value": 7.01},
      {"measurement": "inhibition in vivo at 0.1 mg/kg", "setting": "[1]; po", "value": 55, "unit": "%"}
    ]},
    {"smiles": "CC1NC(=O)N(C)N=C1c1ccc2c(c1)CCC(=O)N2C", "note": "(stereo not drawn) [Example 71, 2,5-Dimethyl-6-(1-methyl-2-oxo-1,2,3,4-tetrahydroquinolin-6-yl)-4,5-dihydro-1,2,4-triazin-3(2H)-one]", "values": [
      {"measurement": "pIC50", "setting": "[2]; [4]", "value": 4.77},
      {"measurement": "pIC50", "setting": "[3]; [4]", "value": 5.01}
    ]},
    {"smiles": "CCCCN1C(=O)CCc2cc(C3=NNC(=O)NC3C)ccc21", "note": "(stereo not drawn) [68-(3), 6-(1-Butyl-2-oxo-1,2,3,4-tetrahydroquinolin-6-yl)-5-methyl-4,5-dihydro-1,2,4-triazin-3(2H)-one]", "values": [
      {"measurement": "pIC50", "setting": "[2]; [4]", "value": 7.38},
      {"measurement": "pIC50", "setting": "[3]; [4]", "value": 6.85},
      {"measurement": "inhibition in vivo at 1 mg/kg", "setting": "[1]; po", "value": 62, "unit": "%"}
    ]},
    {"smiles": "CC1N=C(NCCO)NN=C1c1ccccc1", "note": "(stereo not drawn) [6-(2), 3-(2-Hydroxyethylamino)-5-methyl-6-phenyl-2,5-dihydro-1,2,4-triazine]", "values": [
      {"measurement": "inhibition in vivo at 10 mg/kg", "setting": "[1]; ip, a: intraperitonealy", "value": 43.1, "unit": "%"}
    ]},
    {"smiles": "CC1NC(=O)NN=C1c1ccccc1", "note": "(stereo not drawn) [36-(3), 5-methyl-6-phenyl-4,5-dihydro-1,2,4-triazin-3(2H)-one]", "values": [
      {"measurement": "inhibition in vivo at 10 mg/kg", "setting": "[1]; ip, a: intraperitonealy", "value": 45.2, "unit": "%"}
    ]},
    {"smiles": "CC1N=C(N2CCN(C(=O)c3ccco3)CC2)NN=C1c1ccccc1", "note": "(stereo not drawn) [4-(2), 3-[4-(2-Furoyl)-1-piperazinyl]-5-methyl-6-phenyl-2,5-dihydro-1,2,4-triazine]", "values": [
      {"measurement": "inhibition in vivo at 10 mg/kg", "setting": "[1]; ip, a: intraperitonealy", "value": 48.9, "unit": "%"}
    ]},
    {"smiles": "CC1N=C(NN)NN=C1c1ccc(Cl)cc1", "note": "(stereo not drawn) [Example 25-(4), 6-(4-chlorophenyl)-3-hydrazino-5-methyl-2,5-dihydro-1,2,4-triazine hydrochloride]", "values": [
      {"measurement": "inhibition in vivo at 10 mg/kg", "setting": "[1]; ip, a: intraperitonealy", "value": 51.7, "unit": "%"},
      {"measurement": "inhibition in vivo at 10 mg/kg", "setting": "[1]; po, b: orally", "value": 37.4, "unit": "%"}
    ]},
    {"smiles": "CC1NC(=O)NN=C1c1ccc(Cl)cc1", "note": "(stereo not drawn) [39-(2), 6-(4-Chlorophenyl)-5-methyl-4,5-dihydro-1,2,4-triazin-3(2H)-one]", "values": [
      {"measurement": "inhibition in vivo at 10 mg/kg", "setting": "[1]; ip, a: intraperitonealy", "value": 57.1, "unit": "%"},
      {"measurement": "inhibition in vivo at 10 mg/kg", "setting": "[1]; po, b: orally", "value": 38.6, "unit": "%"}
    ]},
    {"smiles": "CC1NC(=O)NN=C1c1ccc2c(c1)CCC(=O)N2", "note": "(stereo not drawn) [67-(3), 5-Methyl-6-(2-oxo-1,2,3,4-tetrahydroquinolin-6-yl)-4,5-dihydro-1,2,4-triazin-3(2H)-one]", "values": [
      {"measurement": "pIC50", "setting": "[2]; [4]", "value": 7.74},
      {"measurement": "pIC50", "setting": "[3]; [4]", "value": 7.27},
      {"measurement": "inhibition in vivo at 0.1 mg/kg", "setting": "[1]; po", "value": 43, "unit": "%"}
    ]},
    {"smiles": "CC1N=C(N2CCCCC2)NN=C1c1ccccc1", "note": "(stereo not drawn) [10-(2), 5-Methyl-6-phenyl-3-piperidino-2,5-dihydro-1,2,4-triazine]", "values": [
      {"measurement": "inhibition in vivo at 10 mg/kg", "setting": "[1]; ip, a: intraperitonealy", "value": 46.5, "unit": "%"},
      {"measurement": "inhibition in vivo at 10 mg/kg", "setting": "[1]; po, b: orally", "value": 50, "unit": "%"}
    ]},
    {"smiles": "CC1N=C(N2CCOCC2)NN=C1c1ccccc1", "note": "(stereo not drawn) [8-(2), 5-methyl-3-morpholino-6-phenyl-2,5-dihydro-1,2,4-triazine hydrochloride]", "values": [
      {"measurement": "inhibition in vivo at 10 mg/kg", "setting": "[1]; ip, a: intraperitonealy", "value": 48.9, "unit": "%"}
    ]},
    {"smiles": "CC1NC(=O)NN=C1c1ccc2c(c1)CCC(=O)N2C", "note": "(single isomer, unassigned; (+)) [Example 76, (+)-5-Methyl-6-(1-methyl-2-oxo-1,2,3,4-tetrahydroquinolin-6-yl)-4,5-dihydro-1,2,4-triazin-3(2H)-one]", "values": [
      {"measurement": "pIC50", "setting": "[2]; [6]", "value": 6.44},
      {"measurement": "pIC50", "setting": "[3]; [6]", "value": 5.92},
      {"measurement": "inhibition in vivo at 1 mg/kg", "setting": "[1]; po", "value": 56, "unit": "%"}
    ]}
  ]
}
